Measurements published in PMC7168333, “5-(Carbamoylmethylene)-oxazolidin-2-ones as a Promising Class of Heterocycles Inducing Apoptosis Triggered by Increased ROS Levels and Mitochondrial Dysfunction in Breast and Cervical Cancer” (Biomedicines, 2020).

Tests used:
[1] = test system: procaspases -8 and -9 in HeLa cells; assay: Western blot of procaspases -8 and -9, HeLa; assay type: cell-based, human; conditions: 30 µM, 24 and 72 h
Procedure: (§1) Western blot analysis was conducted basically as previously reported. […] In order to obtain total cell lysates, harvested cells were lysed using 200 μL of lysis buffer as previously reported. Cytosolic and mitochondrial fractions were isolated as already described. Identical amounts of proteins from total lysate, mitochondrial, or cytosolic fraction were resolved on SDS-polyacrylamide gel, blotted to nitrocellulose membrane, and probed with proper primary antibodies (Santa Cruz Biotechnology, Dallas, TX, USA). Immunoreactive products were identified by using ECL Western blotting detection system (Bio-Rad Laboratories, Hercules, CA, USA).

MCF-7 cells [2] = assay: Mitochondrial staining (MitoTracker Orange / Deep-Red, FACS), MCF-7; assay type: cell-based, human; conditions: MCF-7, 15 µM, 24 h
Procedure: (§2) Mitochondrial activity was assessed using MitoTracker Orange (Invitrogen, Milan, Italy), a fluorescent dye that enters mitochondria in a membrane potential-dependent way. Mitochondrial mass was determined using MitoTracker Deep-Red (Invitrogen, Milan, Italy), a far red-fluorescent dye that is largely used to label mitochondria. Both MCF-7 and HeLa cells were treated using 15 and 30 µM OI, respectively, for 24 h. Control cells were added with DMSO and simultaneously processed. Then, cells were incubated in the dark for 30–60 min at 37 °C with pre-warmed MitoTracker staining solution (diluted in PBS/CM to reach a final concentration of 10 nM). All the next steps were still carried out in the dark. Cells were rinsed in PBS, harvested, and re-suspended in 300 μL of PBS/CM. Cells were then examined by flow cytometry using Fortessa (BD Bioscience, San Jose, CA, USA). Data analysis was performed using FlowJo software (Tree Star Inc., Ashland, OR, USA).

[3] = test system: procaspases -8 and -9 in MCF-7 cells; assay: Western blot of procaspases -8 and -9, MCF-7; assay type: cell-based, human; conditions: MCF-7, 15 µM, 24 and 72 h
Procedure: as §1

MCF-10A cells [4] = assay: TUNEL assay, MCF-10A; assay type: cell-based, human; conditions: 30 µM, 72 h
Procedure: (§3) Apoptosis was tested by enzymatic labeling of DNA strand breaks using terminal deoxynucleotidyl transferase-mediated deoxyuridine triphosphate nick end-labeling (TUNEL) assay, following the guidelines of the manufacturer (TUNEL assay kit, Promega, Madison, WI, USA). Briefly, MCF-7 and HeLa cells were added with DMSO or treated with 15 and 30 µM OI, respectively, for 72 h. MCF-10A were added to DMSO or treated using 30 µM OI, for 72 h. Next, nuclear staining was achieved using 0.2 mg/mL 4′,6- diamidino-2-phenylindole (DAPI, Sigma-Aldrich, Milan, Italy) and samples were examined using a fluorescent microscope (Olympus BX4 equipped with CSV1.14 software employing a CAMXC-30 for image acquisition). Images were representative of three independent experiments.

HeLa cells [5] = assay: Cell cycle analysis (PI staining, flow cytometry), HeLa; assay type: cell-based, human; conditions: 30 µM, 24 h
Procedure: In order to assess cell cycle analysis, MCF-7 and HeLa cells were seeded in 6-well plates, at a density of 2.5 × 10^5 cells/well, then they were added to DMSO or treated using 15 and 30 µM OI, respectively, for 24 h. MCF-10A were seeded as described before, then they were added to DMSO or treated using 30 µM OI, the highest concentration used for cancer cells, for 24 h. Next, cells were harvested by trypsinization, rinsed twice with cold PBS, and pelleted by centrifugation at 1500 rpm for 5 min. Pellets were re-suspended in 70% ice-cold ethanol for 30 min at 4 °C to perform cell fixation. Then, samples were rinsed twice with PBS and stained using a solution containing 3.8 mM sodium citrate (Sigma-Aldrich, Milan, Italy), 100 μg/mL RNAse (Sigma-Aldrich, Milan, Italy), 50 μg/mL propidium iodide (PI, Sigma-Aldrich, Milan, Italy), and 0.1% Igepal (Sigma-Aldrich, Milan, Italy) in PBS for 1 h at 37 °C. Subsequent cytofluorimetric analysis was achieved by BD FACSJazz™ Cell Sorter (Becton Dickinson, Franklin Lakes, NJ, USA).

HeLa cells [6] = assay: MTT cell viability assay, HeLa; assay type: cell-based; conditions: Homo sapiens, 72 h
Procedure: Cell viability was assessed by using 3-(4,5-dimethylthiazol-2-y1)-2,5-diphenyltetrazolium bromide (MTT) assay (Sigma-Aldrich, Milan, Italy), as already reported. In brief, MCF-7 and HeLa cells (2 × 10^4 cells/well) were seeded in a 48-well plate and grown in complete medium overnight, then they were switched into DMEM-F12 supplemented with 2% FBS and treated with increasing concentrations (1, 10, 50, 75, and 100 µM) of different oxazolidin-2-ones derivatives (OA-OI) or doxorubicin for 72 h. Untreated cells were added with the vehicle (DMSO) and used as a control. After treatment, fresh MTT reagent (used at a final concentration of 0.5 mg/mL) was added, prolonging incubation for 2 h according to the manufacturer’s protocol. Absorbance at 570 nm was measured in each well, including controls, and every experiment was carried out in triplicate.
(§4) For each sample, mean absorbance was expressed as a percentage of the control and plotted vs. drug concentration, in order to determine the IC50 value (i.e., drug concentration able to decrease cell viability by 50% with respect to the control) for each cell line, generating a sigmoidal dose–response curve by the use of GraphPad Prism 7 software (GraphPad Inc., San Diego, CA, USA). Mean values and standard deviations (SD) of three independent experiments carried out in triplicate were reported. […]

MCF-10A cells [7] = assay: MTT cell viability assay, MCF-10A; assay type: cell-based, human
HeLa cells [8] = assay: TUNEL assay, HeLa; assay type: cell-based, human; conditions: 30 µM, 72 h, control 10%
Procedure: as §3

HeLa cells [9] = assay: Mitochondrial staining (MitoTracker Orange / Deep-Red, FACS), HeLa; assay type: cell-based, human; conditions: 30 µM, 24 h
Procedure: as §2

[10] = test system: cyclin D1, CDK4, phosphorylated Rb in MCF-7 cells; assay: Western blot of cell cycle regulators, MCF-7; assay type: cell-based, human; conditions: MCF-7, 15 µM, 24 and 72 h
Procedure: as §1

MCF-7 cells [11] = assay: MTT cell viability assay, MCF-7; assay type: cell-based; conditions: Homo sapiens, MCF7, 72 h
Procedure: Cell viability was assessed by using 3-(4,5-dimethylthiazol-2-y1)-2,5-diphenyltetrazolium bromide (MTT) assay (Sigma-Aldrich, Milan, Italy), as already reported. […] Untreated cells were added with the vehicle (DMSO) and used as a control. After treatment, fresh MTT reagent (used at a final concentration of 0.5 mg/mL) was added, prolonging incubation for 2 h according to the manufacturer’s protocol. Absorbance at 570 nm was measured in each well, including controls, and every experiment was carried out in triplicate.
as §4

SMILES: CCN(CC)C(=O)/C=C1/OC(=O)N(Cc2ccccc2)C1(C)C [OI, (E)-2-(3-benzyl-4,4-dimethyl-2-oxooxazolidin-5-ylidene)-N,N-diethylacetamide]
- expression level of activated caspase-8 [1]: unaffected
- proteolytic cleavage of pro-caspase-9 into its active form [1]: time-dependently activated
- mitochondrial mass (MitoTracker Deep-Red) (MCF-7 cells [2]): decrease
- mitochondrial membrane potential (MitoTracker Orange) (MCF-7 cells [2]): decrease
- mitochondrial membrane potential per mitochondria (ratio Orange vs. Deep-Red) (MCF-7 cells [2]): significantly decreased
- expression level of activated caspase-8 [3]: unaffected
- proteolytic cleavage of pro-caspase-9 into its active form [3]: time-dependently activated
- effect in TUNEL assay (MCF-10A cells [4]): did not evidence any noticeable effect
- cells in the G1 phase (HeLa cells [5]): remarkable increase
- cells in the S phase (HeLa cells [5]): considerable decrease
- IC50 (HeLa cells [6]): 31.1 µM
- IC50 (MCF-10A cells [7]; Homo sapiens, MCF-10A, 72 h): 351 µM
- anti-proliferative effect / cytotoxicity on non-tumorigenic MCF-10A cells (MCF-10A cells [7]; up to 72 h): no significant anti-proliferative effect
- apoptotic rate (TUNEL-positive cells) (HeLa cells [8]): 53.2%
- mitochondrial mass (MitoTracker Deep-Red) (HeLa cells [9]): decrease
- mitochondrial membrane potential (MitoTracker Orange) (HeLa cells [9]): decrease
- mitochondrial membrane potential per mitochondria (ratio Orange vs. Deep-Red) (HeLa cells [9]): significantly decreased
- CDK4 protein expression levels [10]: remained unaffected
- cyclin D1 protein content ([10]; time dependent): significantly reduced
- phosphorylated Rb protein content ([10]; time dependent): significantly reduced
- IC50 (MCF-7 cells [11]): 17.7 µM
